Experimental data published in patent US20120214847A1, “2-[1-PHENYL-5-HYDROXY-4a-SUBSTITUTED-HEXAHYDROCYCLOPENTA[F]INDAZOL-5-YL]ETHYL PHENYL DERIVATIVES AS GLUCOCORTICOID RECEPTOR LIGANDS” (Merck Sharp & Dohme Corp., priority 2009, published 2012).

Molecular target: T1, human GR (Homo sapiens, UniProt P04150)
T1 construct: naturally expresses the human GR; endogenous in cells
T1 sequence (P04150 1-777): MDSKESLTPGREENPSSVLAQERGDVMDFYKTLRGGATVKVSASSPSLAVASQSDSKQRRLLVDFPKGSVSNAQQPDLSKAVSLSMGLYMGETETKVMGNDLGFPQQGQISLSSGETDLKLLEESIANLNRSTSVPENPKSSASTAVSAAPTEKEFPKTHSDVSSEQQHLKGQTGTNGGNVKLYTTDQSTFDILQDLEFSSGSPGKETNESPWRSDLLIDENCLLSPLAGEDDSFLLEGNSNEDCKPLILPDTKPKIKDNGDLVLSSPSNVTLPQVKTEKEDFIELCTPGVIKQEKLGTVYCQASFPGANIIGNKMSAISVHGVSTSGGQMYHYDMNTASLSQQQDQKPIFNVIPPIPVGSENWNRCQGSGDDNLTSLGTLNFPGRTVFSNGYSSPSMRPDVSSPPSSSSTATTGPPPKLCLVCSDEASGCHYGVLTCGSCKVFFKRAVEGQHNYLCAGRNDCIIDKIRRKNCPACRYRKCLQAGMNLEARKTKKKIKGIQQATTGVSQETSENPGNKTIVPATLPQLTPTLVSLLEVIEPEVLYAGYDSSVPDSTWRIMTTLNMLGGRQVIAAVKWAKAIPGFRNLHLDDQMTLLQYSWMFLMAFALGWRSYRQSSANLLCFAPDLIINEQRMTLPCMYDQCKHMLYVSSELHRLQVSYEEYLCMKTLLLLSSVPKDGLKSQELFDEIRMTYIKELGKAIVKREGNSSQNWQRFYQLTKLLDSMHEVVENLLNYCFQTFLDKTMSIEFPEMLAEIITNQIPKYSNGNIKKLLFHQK
Experiment: Trans-activation modulation of glucocorticoid receptor (GRAMMER), MMTV-LUC reporter in A549 cells
Assay type: cell-based
Details: for Emax: A549, A549 cells, Emax relative to the activity obtained with 300 nM dexamethasone, read-out: Transactivation A549 Cells Grammer Emax (%); for EC50: A549 cells, IP = inflection point, read-out: Transactivation A549 Cells Grammer IP
Excerpt: Trans-Activation Modulation of Glucocorticoid Receptor (GRAMMER)
This assay assesses the ability of test compounds to control transcription from the MMTV-LUC reporter gene in lung adenocarcinoma A549 cells or HeLa cells, a human […] cell line that naturally expresses the human GR. The assay measures induction of a modified MMTV LTR/promoter linked to the LUC reporter gene.
The routine transient assay consists of plating 7,000-25,000 cells/well of a white, clear-bottom 96-well plate. Alternatively, 384-well plates can be used at a cell concentration of 10,000/well. The media that the cells are plated in is “exponential growth medium” which consists of phenol red-free RPMI1640 containing 10% FBS, 4 mM L-glutamine, 20 mM HEPES, 10 ug/mL human insulin, and 20 ug/mL gentamicin. Incubator conditions are 37° C. and 5% C02. The transfection is done in batch mode. The cells are trypsinized and counted to the right cell number in the proper amount of fresh media. It is then gently mixed with the FuGene6/DNA 25 mix and plated onto the 96 or 384-well plate, all the wells receive 100 uL or 40 uL, respectively, of medium+lipid/DNA complex then incubated 37° C. overnight. The transfection cocktail consists of serum-free OptiMEM, FuGene6 reagent and DNA. The manufacturer's (Roche Biochemical) protocol for cocktail setup is as follows: The lipid to DNA ratio is approximately 2.5:1 and the incubation time is 20 min at room temperature. Sixteen to 24 h after transfection, the cells are treated with dexamethasone to a final concentration of 10 nM as well as the compound of interest, such that final DMSO (vehicle) concentration is equal to or less than 1%. Each plate also contains samples that are treated with 10 nM dexamethasone alone, which is used as the 100% activity control. The cells are exposed to the compounds for 24 h. After 24 h, the cells are lysed by a Promega cell culture lysis buffer for approximately 30 min and then the luciferase activity in the extracts is assayed in the 96-well format luminometer. In 384 well format, Steady-Glo (Promega) or Steady-Lite (PerkinElmer) can be used by adding an equal volume of reagent to the media present in each well. Activity induced by 10 nM dexamethasone alone is set at 100% activity. Antagonist activity is calculated by determining the decrease in dexamethasone-induced activity in response to compound treatment relative to samples that were treated with dexamethasone alone. Results are expressed as % inhibition of 10 nM dexamethasone activity or as fold of 10 nM dexamethasone activity. This transactivation assay can be performed in an agonist and antagonist mode to identify these different activities.
Activity of test compounds is calculated as the Emax relative to the activity obtained with 300 nM dexamethasone. […] The exemplified tissue selective glucocorticoid receptor modulators of the present invention display agonist activity in this assay of greater than 5% and less than 100%, and maximal transactivation activity less then maximal transrepression activity. The action of compounds is also tested in an antagonist mode (Anti-GRAMMER) in which the cells are treated with medium containing an agonist such as 10 nM DEX and the ability of agents to inhibit the activation by an agonist is measured.

Row | SMILES | Emax [%] | EC50 [nM]
1 | O=C(NC1(CO)CC1)c1ccccc1CC[C@]1(O)CCC2=Cc3c(cnn3-c3ccc(F)cc3)C[C@@]21C1CC1 [Example 46, 2-{2-[(4aR,5R)-4a-Cyclopropyl-1-(4-fluorophenyl)-5-hydroxy-1,4,4a,5,6,7-hexahydrocyclopenta[f]indazol-5-yl]ethyl}-N-[1-(hydroxymethyl)cyclopropyl]benzamide] | 34 | 20
2 | CC[C@]12Cc3cnn(-c4ccc(F)cc4)c3C=C1CC[C@@]2(O)CCc1cccc(OC)c1C(N)=O [Example 37, 2-{2-[(4aS,5R)-4a-Ethyl-1-(4-fluorophenyl)-5-hydroxy-1,4,4a,5,6,7-hexahydrocyclopenta[f]indazol-5-yl]ethyl}-6-methoxybenzamide] | 49 | 10
3 | CC[C@]12Cc3cnn(-c4cccc(F)c4)c3C=C1CC[C@@]2(O)CCc1cccc(F)c1C(N)=O [Example 12, 2-{2-[(4aS,5R)-4a-Ethyl-1-(3-fluorophenyl)-5-hydroxy-1,4,4a,5,6,7-hexahydrocyclopenta[f]indazol-5-yl]ethyl}-6-fluorobenzamide] | 58 | 23
4 | NC(=O)c1c(C2CC2)ccnc1CC[C@]1(O)CCC2=Cc3c(cnn3-c3ccc(F)cc3)C[C@@]21C1CC1 [Example 49, 4-Cyclopropyl-2-{2-[(4aR,5R)-4a-cyclopropyl-1-(4-fluorophenyl)-5-hydroxy-1,4,4a,5,6,7-hexahydrocyclopenta[f]indazol-5-yl]ethyl}pyridine-3-carboxamide] | 30 | 9
5 | NC(=O)CNC(=O)c1ccccc1CC[C@]1(O)CCC2=Cc3c(cnn3-c3ccc(F)cc3)C[C@@]21C1CC1 [Example 47, N-(2-Amino-2-oxoethyl)-2-{2-[(4aR,5R)-4a-cyclopropyl-1-(4-fluorophenyl)-5-hydroxy-1,4,4a,5,6,7-hexahydrocyclopenta[f]indazol-5-yl]ethyl}benzamide] | 46 | 17
6 | COc1cccc(CC[C@]2(O)CCC3=Cc4c(cnn4-c4ccc(F)cc4)C[C@@]32C2CC2)c1C(N)=O [Example 38, 2-{2-[(4aR,5R)-4a-Cyclopropyl-1-(4-fluorophenyl)-5-hydroxy-1,4,4a,5,6,7-hexahydrocyclopenta[f]indazol-5-yl]ethyl}-6-methoxybenzamide] | 11 | 10
7 | CC[C@]12Cc3cnn(-c4ccccc4)c3C=C1CC[C@@]2(O)CCc1ccc(F)cc1C(N)=O [Example 6] | 26 | 178
8 | O=C(NCCO)c1ccccc1CC[C@]1(O)CCC2=Cc3c(cnn3-c3ccc(F)cc3)C[C@@]21C1CC1 [Example 50, 2-{2-[(4aR,5R)-4a-Cyclopropyl-1-(4-fluorophenyl)-5-hydroxy-1,4,4a,5,6,7-hexahydrocyclopenta[f]indazol-5-yl]ethyl}-N-(2-hydroxyethyl)benzamide] | 57 | 12
9 | NS(=O)(=O)c1ccccc1CC[C@]1(O)CCC2=Cc3c(cnn3-c3cccnc3)C[C@@]21C1CC1 [Example 24, 2-{2-[(4aR,5R)-4a-Cyclopropyl-5-hydroxy-1-(pyridin-3-yl)-1,4,4a,5,6,7-hexahydrocyclopenta[f]indazol-5-yl]ethyl}benzenesulfonamide] | 35 | 24
10 | CC[C@]12Cc3cnn(-c4ccc(F)cc4)c3C=C1CC[C@@]2(O)CCc1nccc(OC)c1CC(N)=O [Example 64, 2-(2-{2-[(4aS,5R)-4a-Ethyl-1-(4-fluorophenyl)-5-hydroxy-1,4,4a,5,6,7-hexahydrocyclopenta[f]indazol-5-yl]ethyl}-4-methoxypyridin-3-yl)acetamide] | 37 | 142
11 | Cc1ccnc(CC[C@]2(O)CCC3=Cc4c(cnn4-c4ccc(F)cc4)C[C@@]32C2CC2)c1 [Example 36, (4aR,5R)-4a-Cyclopropyl-1-(4-fluorophenyl)-5-[2-(4-methylpyridin-2-yl)ethyl]-1,4,4a,5,6,7-hexahydrocyclopenta[f]indazol-5-ol] | 11 | 59
12 | NC(=O)c1ccccc1CC[C@]1(O)CCC2=Cc3c(cnn3-c3ccc(F)cc3)C[C@@]21C1CC1 [Example 23, 2-{2-[(4aR,5R)-4a-Cyclopropyl-1-(4-fluorophenyl)-5-hydroxy-1,4,4a,5,6,7-hexahydrocyclopenta[f]indazol-5-yl]ethyl}benzamide] | 21 | 37
13 | N#Cc1ccccc1CC[C@]1(O)CCC2=Cc3c(cnn3-c3ccccc3)C[C@@]21C1CC1 [Example 27, 2-{2-[(4aR,5R)-4a-Cyclopropyl-5-hydroxy-1-phenyl-1,4,4a,5,6,7-hexahydrocyclopenta[f]indazol-5-yl]ethyl}benzonitrile] | 13 | 23
14 | CC[C@]12Cc3cnn(-c4ccc(F)cc4)c3C=C1CC[C@@]2(O)CCc1cncc(F)c1 [Example 21, (4aS,5R)-4a-Ethyl-1-(4-fluorophenyl)-5-[2-(5-fluoropyridin-3-yl)ethyl]-1,4,4a,5,6,7-hexahydrocyclopenta[f]indazol-5-ol] | 31 | 76
15 | CC(C)(CO)NC(=O)c1cc(F)cnc1CC[C@]1(O)CCC2=Cc3c(cnn3-c3ccc(F)cc3)C[C@@]21C1CC1 [Example 48, 2-{2-[(4aR,5R)-4a-Cyclopropyl-1-(4-fluorophenyl)-5-hydroxy-1,4,4a,5,6,7-hexahydrocyclopenta[f]indazol-5-yl]ethyl}-5-fluoro-N-(1-hydroxy-2-methylpropan-2-yl)pyridine-3-carboxamide] | 50 | 26
16 | N#Cc1ccnc(CC[C@]2(O)CCC3=Cc4c(cnn4-c4ccc(F)cc4)C[C@@]32C2CC2)c1 [Example 35, 2-{2-[(4aR,5R)-4a-Cyclopropyl-1-(4-fluorophenyl)-5-hydroxy-1,4,4a,5,6,7-hexahydrocyclopenta[f]indazol-5-yl]ethyl}pyridine-4-carbonitrile] | 17 | 25
17 | CC[C@]12Cc3cnn(-c4ccc(F)cc4)c3C=C1CC[C@@]2(O)CC(O)c1cc(C#N)ccn1 (stereo partly drawn) [Example 72, 2-{2-[(4aS,5R)-4a-Ethyl-1-(4-fluorophenyl)-5-hydroxy-1,4,4a,5,6,7-hexahydrocyclopenta[f]indazol-5-yl]-1-hydroxyethyl}pyridine-4-carbonitrile] | 13 | 187
18 | CS(=O)(=O)c1ccccc1CC[C@]1(O)CCC2=Cc3c(cnn3-c3ccc(F)cc3)C[C@@]21C1CC1 [Example 58, (4aR,5R)-4a-Cyclopropyl-1-(4-fluorophenyl)-5-{2-[2-(methylsulfonyl)phenyl]ethyl}-1,4,4a,5,6,7-hexahydrocyclopenta[f]indazol-5-ol] | 11 | 9
